Experimental data published in patent US9198886B2, “Use of 2,5-dihydroxybenzene for the treatment of ocular diseases” (priority 2006, dated 2015).

Tests used:
Nakagawa angioblastoma = test: Topical cream in a child with Nakagawa angioblastoma (hemangioblastoma); format: in vivo, human; details: cream 2.5%, topical twice a day, 1 month, one child
Source text: Photographs showing the effects of a topical treatment with a cream comprising 2,5-dihydroxybenzenesulfonic (DHBS) in a child suffering from Nakagawa angioblastoma.
The cream comprising 2,5-dihydroxybenzene sulfonic (2.5%) was topically applied twice a day during 1 month on the face of the child suffering from Nakagawa angioblastoma.

[1] = test system: angiogenesis induced by Helicobacter pylori in the human gastric mucosa; test: Gastric mucosa biopsy in a patient chronically infected with Helicobacter pylori; format: in vivo; details: 500 mg/day oral, one week
Experimental: FIG. 5. Helicobacter pylori • A) Hematoxylin-eosin staining of the gastric mucosa of a sample obtained from a patient infected with Helicobacter pylori before treatment. The arrows and the asterisk indicate the formation of neovessels in the mucosa protruding the gastric lumen through the lost epithelial layer. • B) Hematoxylin-eosin staining of the gastric mucosa of a sample obtained from the same patient infected with Helicobacter pylori after administering 500 mg of 2,5-dihydroxybenzenesulfonate (DHBS) daily for a week.
A biopsy of the gastric mucosa was performed in a patient chronically infected with Helicobacter pylori before the oral treatment with 2,5-dihydroxybenzene sulfonic acid (Dobesilate) (500 mg/day). After a week of treatment, another biopsy was performed in the patient. Both biopsies were evaluated using hematoxylin-eosin staining. […] Microscopically, the arrows and the asterisk indicate the formation of neovessels in the mucosa protruding the gastric lumen through the lost epithelial layer. […] This example illustrates that the use of DHBS is beneficial in the treatment of gastritis and angiogenesis caused by the infection with Helicobacter pylori.

Leishmania major = Leishmania major infection of the mouse paw pad; format: in vivo, BALB/c female mice
Source text: This model is based in the massive inoculation of Leishmania promatigotes in the mouse paw pad. Under these conditions, the parasite induces a progressive inflammation correlated with the multiplication of parasites at the site of inoculation. BALB/c strain female mice that developed severe and uncontrolled injuries were used (Foote S J, Handman E. Brief Funct Genomic Proteomic, 2005). This model has been used in pharmacology to monitor the therapeutic capacity of new leishmanicide compounds and the preventive capacity of potential vaccines against leishmaniasis ((Nelson K G et al. Antimicrob Agents Chemother. 2006).
The animals were inoculated with 5×10^6 of L. major promastigotes (strain Hervás) in 50 μL of PBS into the plantar pad of the right back paw. As negative control of the infection, a group of mice inoculated with 50 μL of PBS was used. The sizes of the lesions were measured every 7 days until the animals were sacrificed (week 9) using a Vernier caliper. The thickness of the right back paw (infected) and the left back paw (uninfected) of all the animals was measured at the base of the fifth toe. The progression of the inflammation is represented as the difference in thickness between the infected and the non-infected paws. […]

[2] = target: fibroblast growth factor-1 (FGF-1) (Homo sapiens, UniProt P05230); test: FGF-1 induced mitogenesis in quiescent Balb/c 3T3 fibroblasts; format: cell-based; details: potassium salts, except 2-acetoxy-5-hydroxybenzene sulfonate as calcium salt
Experimental: The evaluated compounds were used in the form of potassium salt, except in the first case in which calcium salt was used. The experiments were carried out as described in Fernández-Tornero C et al. J Biol Chem, 2003.

[3] = test system: intestinal inflammatory disease induced by dextran sulfate sodium; test: DSS-induced intestinal inflammatory disease in mice; format: in vivo, mice of strain C57BL/6J-664
Experimental: The mice were subject to two 7-day cycles of exposure to dextran sulfate sodium (DSS) (from day 1 to 7 and from day 14 to 21) in the drinking water separated by 7 days in which regular water was provided (from 7 to 14). One group was treated with vehicle (0.9% NaCl), another with Solu-Medrol (10 mg/kg/day i.m.), and the other two groups with potassium 2,5-diacetoxybenzene sulfonate (DABS), one of them with 100 mg/kg/day i.p. and the other with 125 mg/kg/day, orally (p.o.). The body weight was normalized on day 0. Data are expressed as the mean+SD of the percentage of the basal weight (day 0) of 10 mice per group.
The mice were subject to two 7-day cycles of exposure to dextran sulfate sodium (DSS) (from day 1 to 7 and from day 14 to 21) in the drinking water separated by 7 days in which regular water was provided (from 7 to 14). One group was treated with vehicle (0.9% NaCl), another with Solu-Medrol (10 mg/kg/day i.m.), and the other two groups with potassium 2,5-diacetoxybenzene sulfonate (DABS), one of them with 100 mg/kg/day i.p. and the other with 125 mg/kg/day, orally (p.o.) Data are expressed as the mean±SD of the clinical score of the disease continuously obtained from 10 mice per each group.
The induction of the intestinal inflammatory disease described below is a representative model for the evaluation of therapeutic strategies to treat Crohn's disease and ulcerative colitis. 7-8 week old female mice of strain C57BL/6J-664 were used. The intestinal inflammatory disease (HD) was induced by feeding the mice with 3% dextran sulfate sodium (DSS; MW 40,000) dissolved in drinking water in 2 cycles. Each cycle consisted of 7 days with 3% DSS in the drinking water separated by 7 days with regular water. A daily clinical evaluation of the animals was performed in which the body weight, the consistency of the faeces and the presence of blood in the faeces were determined. Thus, the validated score of the clinical activity of the disease was evaluated with a 0 to 6 scale, considering the following parameters: consistency of the faeces, presence or absence of fecal blood and loss of weight.
At the end of the first cycle of exposure to DSS, the mice were divided into the following treatment groups: a first group was administered intraperitoneal (i.p) injections of vehicle (0.9% NaCl). Another group received intramuscular injections of Solu-Medrol, a standard IID treatment, at a dose of 10 mg/kg/day. A third group was administered i.p. injections of potassium 2,5-diacetroxybenzene sulfonate (DABS, 100 mg/kg/day). The last group was treated orally with 125 mg/kg day of DABS.

Chain of fibroblast growth factor-1 (FGF-1) (P05230 whole entry, species assumed): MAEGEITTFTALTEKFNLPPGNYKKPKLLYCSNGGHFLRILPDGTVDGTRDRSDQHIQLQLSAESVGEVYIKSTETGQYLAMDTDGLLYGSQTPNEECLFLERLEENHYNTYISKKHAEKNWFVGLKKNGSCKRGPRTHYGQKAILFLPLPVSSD

Row | SMILES | coloration of the hemangioblastoma lesion (Nakagawa angioblastoma) | angiogenic activity in gastric mucosa [1] | epithelial membrane of gastric mucosa [1] | gastric mucosa symptoms of congestion and erythema [1] | increase of paw thickness (infected vs non-infected paw) (Leishmania major; potassium salt 200 mg/kg i.p. daily for 14 days from third week after infection, effect from the eighth week) | FGF-1 induced mitogenesis [2] | disease clinical score ([3]; 100 mg/kg/day i.p.) | disease clinical score ([3]; 125 mg/kg/day orally) | loss of body weight produced by two cycles of DSS ([3]; DABS 100 mg/kg/day i.p. or 125 mg/kg/day p.o., Solu-Medrol 10 mg/kg/day i.m., vs vehicle) | efficacy compared with standard treatment Solu-Medrol ([3]; body weight and clinical score, Solu-Medrol 10 mg/kg/day i.m.) | size of the lesion (paw thickness difference) (Leishmania major; 200 mg/kg/day i.p. from day 0 to week 9, effect from the third week post-infection)
1 | O=S(=O)(O)c1cc(O)ccc1O [DHBS, 2,5-dihydroxybenzene sulfonic acid] | reduction in the intensity of the reddish coloration | less angiogenic activity | apparently normal | symptoms of congestion and erythema disappear | significant reduction in the increase of paw thickness | Inhibition of the mitogenesis |  |  |  |  | 
2 | CC(=O)Oc1ccc(OC(C)=O)c(S(=O)(=O)[O-])c1.[K+] [DABS, potassium 2,5-diacetoxybenzene sulfonate] |  |  |  |  |  | Inhibition of FGF-1 induced mitogenesis was observed | reduced | reduced | reduced | not lower (in some points it is higher) | statistically significant reduction in the size of the lesion
